Results reported in ChEMBL document CHEMBL1122460, “Preparation of some 10-[3-(dimethylamino)-1-propyl]-10H-pyrazino[2,3-b][1,4] benzothiazines as potential neuroleptics” (J Med Chem, 1983).

Legend:
Assay type in all cases: protein assay
[1] = biological target: Dopamine receptor; experiment: Tested for displacement of rat striatal dopamine receptors by using [3H]apomorphine as radioligand
[2] = biological target: Dopamine receptor; experiment: Tested for displacement of rat caudate dopamine receptors by using [3H]spiperone as radioligand
[3] = biological target: Dopamine receptor; experiment: Tested for displacement of rat caudate dopamine receptors by using [3H]apomorphine as radioligand

Row | Structure (SMILES) | IC50 [1] [µM] | IC50 [2] [µM] | IC50 [3] [µM]
1 | Cc1cnc2c(n1)N(CCCN(C)C)c1ccccc1S2 | 0.103 | 0.382 | –
2 | CN(C)CCCN1c2ccccc2Sc2ncc(Cl)nc21 | – | 0.0621 | 0.0673
3 | CN(C)CCCN1c2cc(Cl)ccc2Sc2nccnc21 | 5.968 | 9.166 | –
4 | CN(C)CCCN1c2ccccc2Sc2nc(Cl)cnc21 | – | 0.553 | 1.222
